Reference: ChEMBL document CHEMBL1201862, “PubChem BioAssay data set” (2004)
Activity calls are given as the source filed them.

How the values were obtained:
[1] = biological target: T1, Rac GTPase-activating protein 1 (Homo sapiens, UniProt Q9H0H5); assay: MgcRacGAP GTPase-activating activity inhibitors, confirmation, biochemical, ADP Hunter fluorescence, primary and confirmatory (AID 624330); assay type: functional
T1 sequence (Q9H0H5 whole entry): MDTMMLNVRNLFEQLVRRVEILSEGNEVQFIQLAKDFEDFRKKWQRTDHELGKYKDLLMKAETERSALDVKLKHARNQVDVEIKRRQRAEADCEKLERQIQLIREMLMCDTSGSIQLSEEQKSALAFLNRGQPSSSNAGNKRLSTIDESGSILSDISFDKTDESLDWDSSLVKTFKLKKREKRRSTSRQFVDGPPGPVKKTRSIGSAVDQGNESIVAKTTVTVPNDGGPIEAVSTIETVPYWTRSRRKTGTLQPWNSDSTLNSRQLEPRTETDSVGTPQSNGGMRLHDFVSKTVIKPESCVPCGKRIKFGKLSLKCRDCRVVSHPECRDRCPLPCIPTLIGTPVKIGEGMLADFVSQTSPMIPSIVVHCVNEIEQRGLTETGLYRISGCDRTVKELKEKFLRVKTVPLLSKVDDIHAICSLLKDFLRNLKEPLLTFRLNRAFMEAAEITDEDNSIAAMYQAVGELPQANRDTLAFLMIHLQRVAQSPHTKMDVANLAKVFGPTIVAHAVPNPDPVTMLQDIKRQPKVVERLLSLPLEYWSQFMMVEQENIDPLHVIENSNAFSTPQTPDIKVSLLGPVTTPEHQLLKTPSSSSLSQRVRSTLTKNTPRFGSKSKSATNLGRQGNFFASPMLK

[2] = biological target: Envelope glycoprotein gp160 (Human immunodeficiency virus 1, UniProt Q6QLK5); assay: inhibitors of HIV fusion peptide binding, primary screen, biochemical, uHTS, fluorescence dequenching (AID 1986)
Sequence of Envelope glycoprotein gp160 (Q6QLK5 whole entry, the tested form may be a part): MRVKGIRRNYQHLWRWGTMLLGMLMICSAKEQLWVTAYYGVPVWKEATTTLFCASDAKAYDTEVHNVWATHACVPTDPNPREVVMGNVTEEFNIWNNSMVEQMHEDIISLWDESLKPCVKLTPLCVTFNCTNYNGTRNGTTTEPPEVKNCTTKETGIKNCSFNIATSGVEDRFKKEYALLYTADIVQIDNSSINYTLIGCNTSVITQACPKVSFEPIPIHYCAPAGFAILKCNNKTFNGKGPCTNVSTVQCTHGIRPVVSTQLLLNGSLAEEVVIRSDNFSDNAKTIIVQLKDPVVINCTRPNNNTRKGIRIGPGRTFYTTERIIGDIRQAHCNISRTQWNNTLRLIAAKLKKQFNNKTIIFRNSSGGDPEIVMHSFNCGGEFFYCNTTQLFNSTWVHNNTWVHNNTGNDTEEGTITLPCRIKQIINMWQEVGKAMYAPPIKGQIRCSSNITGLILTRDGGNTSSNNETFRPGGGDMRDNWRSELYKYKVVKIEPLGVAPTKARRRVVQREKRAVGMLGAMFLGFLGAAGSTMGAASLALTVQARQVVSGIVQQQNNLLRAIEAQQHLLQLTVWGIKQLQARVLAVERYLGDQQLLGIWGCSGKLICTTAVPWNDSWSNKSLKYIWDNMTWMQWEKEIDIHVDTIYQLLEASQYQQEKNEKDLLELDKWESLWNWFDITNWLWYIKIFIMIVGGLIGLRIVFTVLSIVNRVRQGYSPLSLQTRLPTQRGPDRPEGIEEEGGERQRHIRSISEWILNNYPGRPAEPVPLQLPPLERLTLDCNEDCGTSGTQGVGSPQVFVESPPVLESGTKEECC

Genome polyprotein = Genome polyprotein (dengue virus type 2, UniProt P29990); assay: Dengue-2 NS5 methyltransferase inhibitors, primary screen, biochemical, confirmation dose response (AID 588689); assay type: functional
Estrogen receptor beta [3] = biological target: T2, Estrogen receptor beta (Homo sapiens, UniProt Q92731); assay: ERβ–SRC-3 coactivator interaction inhibitors, confirmation, orthogonal assay, biochemical, ELISA, streptavidin-HRP readout (AID 1060)
T2 sequence (Q92731 whole entry): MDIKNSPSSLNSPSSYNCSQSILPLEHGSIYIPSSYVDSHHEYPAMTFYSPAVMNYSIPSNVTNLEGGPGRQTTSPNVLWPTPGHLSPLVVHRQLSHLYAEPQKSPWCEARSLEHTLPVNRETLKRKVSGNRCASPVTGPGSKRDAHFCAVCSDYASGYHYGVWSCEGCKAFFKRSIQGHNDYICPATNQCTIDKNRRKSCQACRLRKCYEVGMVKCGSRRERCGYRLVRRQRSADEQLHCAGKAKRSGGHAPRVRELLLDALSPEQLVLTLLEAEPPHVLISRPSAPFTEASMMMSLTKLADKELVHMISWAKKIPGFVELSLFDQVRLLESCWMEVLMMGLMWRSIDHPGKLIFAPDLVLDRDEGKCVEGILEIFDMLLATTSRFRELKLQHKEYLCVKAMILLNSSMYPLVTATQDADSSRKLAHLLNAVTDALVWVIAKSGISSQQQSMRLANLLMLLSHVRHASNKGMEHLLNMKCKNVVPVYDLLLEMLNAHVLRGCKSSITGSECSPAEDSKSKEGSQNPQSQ

Bcl-2-like protein 10 = Bcl-2-like protein 10 (Homo sapiens, UniProt Q9HD36); assay: displacers of TR3 peptide from Bcl-B, primary screen, selectivity assay for Bfl-1 inhibitor project, biochemical, fluorescence polarization, FITC-TR3 peptide (AID 748);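 further: fluorescence polarization from a fluorescein-labelled TR3 peptide binding purified Bcl-B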
Estrogen receptor beta [4] = biological target: T2, Estrogen receptor beta
Cysteine protease ATG4B = biological target: T3, Cysteine protease ATG4B (Homo sapiens, UniProt Q9Y4P1); assay type: functional;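 further: Fluorescence-based dose-response confirmation assay measuring inhibition of ATG4B activity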
T3 sequence (Q9Y4P1 whole entry): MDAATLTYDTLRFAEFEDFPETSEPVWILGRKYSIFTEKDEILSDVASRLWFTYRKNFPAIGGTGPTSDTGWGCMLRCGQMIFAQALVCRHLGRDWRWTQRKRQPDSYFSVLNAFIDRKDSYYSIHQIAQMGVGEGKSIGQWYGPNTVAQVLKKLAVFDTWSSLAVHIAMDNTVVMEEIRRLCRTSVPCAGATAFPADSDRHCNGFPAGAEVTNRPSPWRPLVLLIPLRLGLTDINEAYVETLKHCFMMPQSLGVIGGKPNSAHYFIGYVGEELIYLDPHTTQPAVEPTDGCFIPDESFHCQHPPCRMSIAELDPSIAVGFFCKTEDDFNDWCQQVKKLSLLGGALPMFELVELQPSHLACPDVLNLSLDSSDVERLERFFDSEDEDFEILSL

Cytochrome P450 2C9 = Cytochrome P450 2C9 (Homo sapiens, UniProt P11712)
Sequence of Cytochrome P450 2C9 (P11712 whole entry): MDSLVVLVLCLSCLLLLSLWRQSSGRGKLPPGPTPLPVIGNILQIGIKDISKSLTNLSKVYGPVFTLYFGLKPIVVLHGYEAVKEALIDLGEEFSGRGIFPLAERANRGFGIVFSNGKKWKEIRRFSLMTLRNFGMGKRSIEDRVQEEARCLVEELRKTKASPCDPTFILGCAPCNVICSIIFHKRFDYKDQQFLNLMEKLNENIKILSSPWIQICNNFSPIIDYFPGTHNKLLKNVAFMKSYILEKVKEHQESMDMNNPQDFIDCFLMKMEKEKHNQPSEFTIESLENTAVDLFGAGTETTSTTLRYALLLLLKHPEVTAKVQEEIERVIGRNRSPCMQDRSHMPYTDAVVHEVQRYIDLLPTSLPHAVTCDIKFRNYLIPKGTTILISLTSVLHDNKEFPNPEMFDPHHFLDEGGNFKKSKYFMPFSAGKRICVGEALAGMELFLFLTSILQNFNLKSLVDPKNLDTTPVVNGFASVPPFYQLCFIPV

Phospholipase A2 = Phospholipase A2 (Homo sapiens, UniProt P04054); assay type: functional;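 further: confirmatory dose-response counterscreen on phospholipase A2, testing hits that came from an ultra-high-throughput screen for ATG4B inhibitors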
Sequence of Phospholipase A2 (P04054 whole entry): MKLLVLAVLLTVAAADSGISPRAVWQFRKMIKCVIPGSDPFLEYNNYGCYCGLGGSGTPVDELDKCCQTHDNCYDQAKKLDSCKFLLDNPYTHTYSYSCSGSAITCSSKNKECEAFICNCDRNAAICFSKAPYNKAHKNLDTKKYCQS

[5] = biological target: G-protein coupled receptor 55 (Homo sapiens, UniProt Q9Y2T6); assay: GPR55 agonists via beta-arrestin recruitment, primary screen, imaging, U2OS cells, beta-arrestin-GFP redistribution (AID 1961); assay type: functional
Sequence of G-protein coupled receptor 55 (Q9Y2T6 whole entry): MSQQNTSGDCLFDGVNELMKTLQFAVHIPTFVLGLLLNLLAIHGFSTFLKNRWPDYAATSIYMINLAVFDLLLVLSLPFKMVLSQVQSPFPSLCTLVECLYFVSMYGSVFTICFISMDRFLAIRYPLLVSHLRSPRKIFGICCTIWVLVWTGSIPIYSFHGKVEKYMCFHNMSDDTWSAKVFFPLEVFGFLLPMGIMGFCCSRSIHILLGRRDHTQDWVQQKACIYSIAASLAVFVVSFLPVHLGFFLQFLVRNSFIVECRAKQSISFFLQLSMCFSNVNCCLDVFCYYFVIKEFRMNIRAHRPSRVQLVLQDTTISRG

X-box-binding protein 1 = X-box-binding protein 1 (Homo sapiens, UniProt P17861); assay type: functional, Cricetulus griseus;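 further: confirmatory dose-response counter-screen serving a CHOP assay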
Sequence of X-box-binding protein 1 (P17861 whole entry): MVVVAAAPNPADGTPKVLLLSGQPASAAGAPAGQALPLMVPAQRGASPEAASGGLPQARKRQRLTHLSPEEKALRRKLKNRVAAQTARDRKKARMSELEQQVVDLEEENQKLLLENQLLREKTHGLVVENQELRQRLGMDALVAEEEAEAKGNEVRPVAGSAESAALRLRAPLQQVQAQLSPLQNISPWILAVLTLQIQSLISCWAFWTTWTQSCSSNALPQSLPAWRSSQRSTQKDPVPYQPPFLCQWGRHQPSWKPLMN

[6] = inhibitors of firefly luciferase expression or activity, dose response, H4 neuroglioma cells, luminescence (AID 1990); assay type: functional, cell-based
[7] = inhibitors of SNCA 5'UTR-driven reporter translation, confirmation, H4 neuroglioma cells, luminescence (AID 1988); assay type: functional, cell-based
[8] = cytotoxicity toward NIH3T3 fibroblasts, dose response, counter-screen, cell-based, ATP luminescence, mouse fibroblasts (AID 2010); assay type: functional;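 further: cells exposed to compound for about 90 hours before reading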
[9] = MDA-MB-231 cell growth inhibition, dose response, cytotoxicity control for RAD54 inhibitor project, CellTiter-Glo luminescence, cherry-pick (AID 651692); assay type: functional, cell-based
Melanocortin receptor 4 = Melanocortin receptor 4 (Homo sapiens, UniProt P32245); assay type: functional, cell-based;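 further: Cell-based assay with luminescence read-out, confirmatory dose-response testing for agonist activity of biased ligands at MC4R; human U2OS cells with tagged receptor and beta-arrestin; potency of agonists that increase receptor coupling to beta-arrestin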
[10] = inhibitors of intracellular T. cruzi replication, confirmation, NIH3T3 host cells, beta-gal luminescence (AID 2044); assay type: functional, cell-based;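 further: intracellular parasites grown in NIH/3T3 mouse fibroblasts as host cells; luminescent beta-galactosidase reporter signal from transgenic T. cruzi replicating inside host cells; inhibitors lower the luminescence signal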
INS1 = assay: beta cell apoptosis inhibitors, cytokine rescue, dose response, luminescence, retest (AID 449756); assay type: functional, cell-based; details: Rattus norvegicus;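 further: cell death triggered by IL-1 beta plus TNF-alpha plus IFN-gamma mixture; protective hits raise ATP signal compared with cytokine alone wells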
[11] = biological target: Neurotensin receptor type 1 (Homo sapiens, UniProt P30989); assay type: functional;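 further: Image-based confirmatory dose-response assay measuring agonist activity at NTR1; NTR1-expressing U2OS osteosarcoma cells imaged for beta-arrestin GFP spot formation; agonist potency where compounds increase beta-arrestin recruitment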
Sequence of Neurotensin receptor type 1 (P30989 whole entry): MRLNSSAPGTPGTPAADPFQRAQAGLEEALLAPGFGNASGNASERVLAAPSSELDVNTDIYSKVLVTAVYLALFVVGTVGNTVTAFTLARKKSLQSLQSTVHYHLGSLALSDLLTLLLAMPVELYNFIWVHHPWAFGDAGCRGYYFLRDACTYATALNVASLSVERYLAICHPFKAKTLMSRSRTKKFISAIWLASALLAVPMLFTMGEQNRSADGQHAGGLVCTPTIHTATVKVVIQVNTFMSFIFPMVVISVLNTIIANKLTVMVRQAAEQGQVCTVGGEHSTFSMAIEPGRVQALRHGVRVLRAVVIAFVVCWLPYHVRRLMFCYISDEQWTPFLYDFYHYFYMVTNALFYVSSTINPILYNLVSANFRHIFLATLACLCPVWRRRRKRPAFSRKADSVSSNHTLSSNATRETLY

[12] = biological target: T4, DNA repair and recombination protein RAD54-like (Homo sapiens, UniProt Q92698); assay: inhibitors of human RAD54 branch migration, confirmation, biochemical, fluorescence, cherry-picked samples, dose series (AID 651657); assay type: functional
T4 sequence (Q92698 whole entry): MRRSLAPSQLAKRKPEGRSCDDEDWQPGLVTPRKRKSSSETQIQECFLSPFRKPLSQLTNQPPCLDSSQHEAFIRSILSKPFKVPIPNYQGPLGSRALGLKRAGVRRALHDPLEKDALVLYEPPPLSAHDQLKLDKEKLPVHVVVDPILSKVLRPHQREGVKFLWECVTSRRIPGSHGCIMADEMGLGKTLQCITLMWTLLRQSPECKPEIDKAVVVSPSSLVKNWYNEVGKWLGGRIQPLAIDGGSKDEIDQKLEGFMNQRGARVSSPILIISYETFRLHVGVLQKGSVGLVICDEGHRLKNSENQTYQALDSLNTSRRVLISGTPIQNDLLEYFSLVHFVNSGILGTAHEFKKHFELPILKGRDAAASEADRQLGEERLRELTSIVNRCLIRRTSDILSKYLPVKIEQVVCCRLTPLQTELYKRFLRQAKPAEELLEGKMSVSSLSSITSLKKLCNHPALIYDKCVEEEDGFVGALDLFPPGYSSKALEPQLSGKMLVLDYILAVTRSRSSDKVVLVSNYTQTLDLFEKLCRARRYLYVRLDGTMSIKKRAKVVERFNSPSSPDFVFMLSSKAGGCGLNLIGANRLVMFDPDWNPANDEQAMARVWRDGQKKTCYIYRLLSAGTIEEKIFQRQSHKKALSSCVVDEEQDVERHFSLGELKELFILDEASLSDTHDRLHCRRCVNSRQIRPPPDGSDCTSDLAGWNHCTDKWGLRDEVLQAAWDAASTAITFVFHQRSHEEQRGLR

[13] = HEK293T cytotoxicity, dose response, cytotoxicity control for miR-122 modulator project, cell-based, activator set, cherry-pick (AID 720690); assay type: functional;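 further: HEK293T human cells scored for general mammalian cytotoxicity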
Protein Rev = Protein Rev (Human immunodeficiency virus type 1 group M subtype B (isolate HXB2)(HIV-1), UniProt P04618); assay: inhibitors of Rev binding to RRE RNA, dose response, biochemical, fluorescence polarization, HIV-1 (AID 434976); parameters: species or system Human immunodeficiency virus 1
Sequence of Protein Rev (P04618 whole entry): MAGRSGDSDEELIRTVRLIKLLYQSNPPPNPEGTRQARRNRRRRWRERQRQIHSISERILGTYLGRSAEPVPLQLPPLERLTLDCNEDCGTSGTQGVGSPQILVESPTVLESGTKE

[14] = biological target: Female germline-specific tumor suppressor gld-1 (Caenorhabditis elegans, UniProt Q17339); assay: inhibitors of GLD-1 binding to TGE RNA, dose response, biochemical, fluorescence polarization, C. elegans (AID 2802);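 further: fluorescence polarization of labeled TGE RNA bound by purified gld-1 protein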
Sequence of Female germline-specific tumor suppressor gld-1 (Q17339 whole entry): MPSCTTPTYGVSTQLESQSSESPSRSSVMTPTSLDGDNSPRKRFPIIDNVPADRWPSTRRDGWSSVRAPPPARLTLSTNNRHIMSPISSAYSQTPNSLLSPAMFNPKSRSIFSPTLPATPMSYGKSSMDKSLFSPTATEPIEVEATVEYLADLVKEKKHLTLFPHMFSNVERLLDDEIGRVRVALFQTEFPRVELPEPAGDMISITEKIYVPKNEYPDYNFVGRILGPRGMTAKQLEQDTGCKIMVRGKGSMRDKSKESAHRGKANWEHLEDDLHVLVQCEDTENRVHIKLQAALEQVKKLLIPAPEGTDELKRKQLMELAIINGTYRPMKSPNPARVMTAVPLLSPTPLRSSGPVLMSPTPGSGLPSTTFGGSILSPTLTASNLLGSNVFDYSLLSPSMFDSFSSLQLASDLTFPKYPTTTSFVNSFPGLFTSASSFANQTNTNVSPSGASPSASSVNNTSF

[15] = biological target: T5, Tyrosine-protein phosphatase non-receptor type 7 (Homo sapiens, UniProt P35236); assay: redox-dependent HePTP inhibition, mechanism study, biochemical, fluorescence (AID 2068); assay type: functional
T5 sequence (P35236 whole entry): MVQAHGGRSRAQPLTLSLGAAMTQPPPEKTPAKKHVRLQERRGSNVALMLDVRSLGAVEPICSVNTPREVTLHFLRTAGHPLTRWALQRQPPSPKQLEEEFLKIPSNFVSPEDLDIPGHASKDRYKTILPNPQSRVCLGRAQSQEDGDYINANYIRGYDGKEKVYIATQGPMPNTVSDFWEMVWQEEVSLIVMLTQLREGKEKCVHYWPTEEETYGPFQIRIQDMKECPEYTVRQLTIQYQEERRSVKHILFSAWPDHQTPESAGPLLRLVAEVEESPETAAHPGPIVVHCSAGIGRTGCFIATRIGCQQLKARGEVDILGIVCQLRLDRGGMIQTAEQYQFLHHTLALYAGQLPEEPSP

[16] = biological target: T6, Dual specificity protein phosphatase 3 (Homo sapiens, UniProt P51452); assay: SAR VHR1 Fluorescent Assay for In Vitro dose response studies. [Related pubchem assays (depositor defined):AID1654, AID1661, AID1878, AID1992, AID2004, AID2070, AID2085]; assay type: functional
T6 sequence (P51452 whole entry): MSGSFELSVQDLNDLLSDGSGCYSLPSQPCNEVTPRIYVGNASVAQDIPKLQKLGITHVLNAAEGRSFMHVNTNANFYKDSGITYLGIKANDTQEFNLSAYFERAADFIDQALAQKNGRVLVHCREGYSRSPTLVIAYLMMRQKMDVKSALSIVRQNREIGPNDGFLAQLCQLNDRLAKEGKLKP

[17] = biological target: T7, Dual specificity protein phosphatase 6 (Rattus norvegicus, UniProt Q64346); assay type: functional;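 further: confirmatory in vitro dose-response testing of MKP-3 inhibition; recombinant His-tagged MKP-3 made in E. coli BL21 with OMFP substrate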
T7 sequence (Q64346 whole entry): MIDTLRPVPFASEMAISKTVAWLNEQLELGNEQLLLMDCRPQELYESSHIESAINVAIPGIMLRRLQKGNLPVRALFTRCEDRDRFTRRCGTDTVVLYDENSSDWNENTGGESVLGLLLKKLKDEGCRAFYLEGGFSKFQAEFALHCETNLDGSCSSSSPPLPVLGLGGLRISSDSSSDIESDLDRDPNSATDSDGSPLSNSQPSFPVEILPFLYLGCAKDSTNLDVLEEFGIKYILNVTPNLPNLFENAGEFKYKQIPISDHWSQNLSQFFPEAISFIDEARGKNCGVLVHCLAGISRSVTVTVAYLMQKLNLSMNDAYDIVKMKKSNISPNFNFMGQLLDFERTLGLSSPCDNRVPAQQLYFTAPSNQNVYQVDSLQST

[18] = biological target: T6, Dual specificity protein phosphatase 3; assay: SAR VHR1 absorbance Assay for In Vitro dose response studies. [Related pubchem assays (depositor defined):AID1654, AID1661, AID1878, AID1992, AID2004]
[19] = biological target: T8, Kappa-type opioid receptor (Homo sapiens, UniProt P41145); assay: SAR analysis of Antagonists of the Kappa Opioid Receptor (KOR) using an Image-Based Assay - Set 3. [Related pubchem assays (depositor defined):AID1777, AID1785]; assay type: functional
T8 sequence (P41145 whole entry): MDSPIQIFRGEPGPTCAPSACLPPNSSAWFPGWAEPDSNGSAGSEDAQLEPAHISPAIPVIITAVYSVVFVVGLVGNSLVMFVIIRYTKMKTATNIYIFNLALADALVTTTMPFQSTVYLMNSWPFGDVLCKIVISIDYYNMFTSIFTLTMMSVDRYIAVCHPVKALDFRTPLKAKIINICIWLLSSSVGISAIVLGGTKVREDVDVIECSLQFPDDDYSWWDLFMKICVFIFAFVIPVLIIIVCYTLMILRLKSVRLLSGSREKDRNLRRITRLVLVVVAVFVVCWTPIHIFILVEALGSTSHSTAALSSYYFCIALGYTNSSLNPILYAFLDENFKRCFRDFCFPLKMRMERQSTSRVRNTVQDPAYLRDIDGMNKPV

[20] = biological target: T8, Kappa-type opioid receptor; assay: SAR analysis of small molecule antagonists of the kappa opioid receptor via a luminescent beta-arrestin assay - Set 3. [Related pubchem assays (depositor defined):AID1777, AID1778, AID1785, AID1786, AID1966, AID2133, AID2136, AID2285, AID2495]; assay type: functional
Mu-type opioid receptor = Mu-type opioid receptor (Homo sapiens, UniProt P35372); assay: SAR Analysis of Antagonists of the MOR Receptor using an Image-Based Assay - Set 3. [Related pubchem assays (depositor defined):AID1777, AID1785, AID1786, AID1966, AID2133, AID2136, AID2284, AID2285, AID2420]; assay type: functional
Sequence of Mu-type opioid receptor (P35372 whole entry): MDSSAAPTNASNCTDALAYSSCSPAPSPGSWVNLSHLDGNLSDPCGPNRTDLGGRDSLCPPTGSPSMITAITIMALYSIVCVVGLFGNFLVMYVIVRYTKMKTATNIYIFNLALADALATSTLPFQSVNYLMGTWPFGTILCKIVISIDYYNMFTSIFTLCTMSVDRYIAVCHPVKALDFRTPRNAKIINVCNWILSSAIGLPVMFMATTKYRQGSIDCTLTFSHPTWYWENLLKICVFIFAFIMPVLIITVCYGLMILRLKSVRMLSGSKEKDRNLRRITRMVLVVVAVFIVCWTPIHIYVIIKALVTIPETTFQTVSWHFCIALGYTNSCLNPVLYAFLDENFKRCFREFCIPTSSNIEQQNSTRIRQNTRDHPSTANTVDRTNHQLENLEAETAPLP

[21] = biological target: Delta-type opioid receptor (Homo sapiens, UniProt P41143); assay: SAR Analysis of Antagonists of the DOR Receptor using an Image-Based Assay - Set 3. [Related pubchem assays (depositor defined):AID1777, AID1785]; assay type: functional;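 further: U2OS cells expressing DOR1 and beta-arrestin GFP stimulated with 100 nM SNC80; imaging of GFP-tagged beta-arrestin moving into spots after receptor activation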
[22] = biological target: Sphingosine 1-phosphate receptor 4 (Homo sapiens, UniProt O95977); assay: S1P4 receptor agonists, human, late-stage follow-up, cell-based, fluorescence, synthesized compounds (AID 463107); assay type: functional
Sequence of Sphingosine 1-phosphate receptor 4 (O95977 whole entry): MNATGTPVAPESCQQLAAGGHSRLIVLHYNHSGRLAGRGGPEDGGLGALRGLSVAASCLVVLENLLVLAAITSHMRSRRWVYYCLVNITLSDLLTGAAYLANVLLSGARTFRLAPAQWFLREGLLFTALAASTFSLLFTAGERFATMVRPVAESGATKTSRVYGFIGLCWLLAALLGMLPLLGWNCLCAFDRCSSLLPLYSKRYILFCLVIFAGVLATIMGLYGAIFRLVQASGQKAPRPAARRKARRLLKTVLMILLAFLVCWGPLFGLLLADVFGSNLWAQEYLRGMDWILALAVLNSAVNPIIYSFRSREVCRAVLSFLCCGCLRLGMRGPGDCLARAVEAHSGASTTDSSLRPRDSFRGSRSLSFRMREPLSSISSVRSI

## CN1C(=O)/C(=C/c2ccc(C(=O)Nc3ccc(O)cc3C(=O)O)cc2)SC1=S
[1]
  IC50: 55.1 µM (active)
[2]
  IC50: 11.3 µM (active)
Genome polyprotein
  IC50: 31.8 µM (active)

## CCOc1ccc2[nH]c(=O)c(=O)[nH]c2c1
Estrogen receptor beta [3]
  IC50: 12.2 µM (not active)
Bcl-2-like protein 10
  IC50: > 50 µM (inactive)
Estrogen receptor beta [4]
  IC50: > 50 µM (not active)

## COc1cc(/C=C2/C(=N)N3C=CSC3=NC2=O)ccc1OCCCOc1c(C)cccc1C
Cysteine protease ATG4B
  IC50: 7.86 µM (active)
Cytochrome P450 2C9
  AC50: 2 µM (inconclusive)
Phospholipase A2
  IC50: 3.11 µM (active)
[5]
  EC50: 4.7 µM (active)

## CC(C)Cn1c(=O)c2ccccc2n2c(SCC(=O)N3c4ccccc4CC3C)nnc12 (configuration not stated)
X-box-binding protein 1
  Absolute IC50 (XBP1): 10 µM
[6]
  EC50: 36 µM (active)
[7]
  EC50: > 120 µM (not active)

## Cc1cc(C)cc(OCC(O)CN2CCC(CN3C(=O)c4cccc5cccc(c45)C3=O)CC2)c1 (configuration not stated)
[8]
  EC50: 9.92 µM (active)
[9]
  AC50: 23.6 µM (active)
Melanocortin receptor 4
  EC50: > 89.2 µM (inactive)
[10]
  EC50: 1.82 µM (active)
INS1
  AC50: 5.59 µM (active)
[11]
  EC50: 18.6 µM (active)
[12]
  AC50: 7.63 µM (active)
[13]
  AC50: 15.9 µM (active)

## c1cc2c3c(cccc3c1)C(N1CCOCC1)=N2
Protein Rev
  IC50: 29.2 µM (not active)
[14]
  IC50: 8.44 µM (active)

## Fc1ccc(OCCn2cc(C(=S)N3CCCCC3)c3ccccc32)cc1
[15]
  IC50: 47.2 µM (active)
[16]
  IC50: > 99 µM (inactive)
[17]
  IC50: > 99 µM (inactive)
[18]
  IC50: > 100 µM (inactive)

## CCc1ccc(S(=O)(=O)NCc2ccc(C(=O)NCCN(Cc3ccc(Br)cc3)C(C)C)cc2)cc1
[19]
  IC50: 0.523 µM (active)
[20]
  IC50: 0.82 µM (active)
Mu-type opioid receptor
  IC50: > 32 µM (inactive)
[21]
  IC50: > 32 µM (inactive)

## Cc1ccc(OCCCOc2ccc(C)nc2[N+](=O)[O-])c([N+](=O)[O-])n1
[22]
  EC50: > 50 µM (inactive)
